Results published in US9249132B2, “Substituted bicyclic aromatic compounds as S-nitrosoglutathione reductase inhibitors” (Nivalis Therapeutics, Inc., priority 2010, dated 2016).

What was measured:
[1] = system: dextran sodium sulfate (DSS)-induced IBD; experiment: Acute prophylactic model of DSS-induced IBD; type: in vivo, mouse
Source text: Acute and chronic models of dextran sodium sulfate (DSS)-induced IBD in mice were used to explore efficacy of GSNORi against this disease. Acute and chronic DSS-induced IBD are widely used and well characterized models that induce pathological changes in the colon similar to those observed in the human disease. In these models and in human disease, epithelial cells within the crypts of the colon are disrupted, leading to dysfunction of the epithelial barrier and the ensuing tissue inflammation, edema, and ulceration. GSNORi therapy may benefit IBD by restoring s-nitrosoglutathione (GSNO) levels, and thus prevent or reverse the epithelial barrier dysfunction. Experimental IBD was induced by administration of DSS in the drinking water of male C57B1/6 mice (N=8 to 10 mice per group) for 6 consecutive days. GSNORi was dosed orally at doses of 0.1 to 10 mg/kg/day for 10 days starting two days prior to and continuing two days post DSS exposure. Two days post DSS exposure, the effect of GSNORi was assessed in a blinded fashion via endoscopy and histopathology using a five point scale ranging from a score=0 (normal tissue) through a score=4 (ulcerative tissue damage and marked pathological changes). Levels of circulating cytokines involved in inflammatory pathways were also assessed. The effect of GSNORi was compared to vehicle treated controls. The corticosteroid, prednisolone, was used as the positive control in this study and was administered daily at 3 mg/kg/day via oral dosing. Naïve mice (N=5) were also assessed as a normal tissue control.

[2] = Mouse pharmacokinetic (PK) study; type: in vivo; settings: plasma, male BALB/c mice, PO 10 mg/kg, IV 2 mg/kg
Source text: The mouse was used to determine the pharmacokinetics of compounds of the invention. This species is widely used to assess the bioavailability of compounds by administering both oral (PO) and intravenous (IV) test articles. Efficacy of the compounds of the invention was compared by assessing plasma exposure in male BALB/c mice either via IV or PO administration at the times of peak activity.
Compounds of the invention were reconstituted in a phosphate buffered saline (PBS)/10% Solutol (HS 15) clear solution resulting in a concentration of 0.2 mg/mL and administered to mice (2 mg/kg) as a single IV dose. Animals were dosed via the lateral tail vein. […] The plasma was transferred into labeled polypropylene tubes and frozen at −70° C. until analyzed by LC/MS/MS.
The compounds of the invention were reconstituted in 40% Propylene Glycol/40% Propylene Carbonate/20% of a 5% Sucrose clear solution resulting in a concentration of 2 mg/mL and administered to mice (10 mg/kg) as a single oral dose via gavage. […] The plasma was transferred into labeled polypropylene tubes and frozen at −70° C. until analyzed by LC/MS/MS.
Plasma samples at each timepoint were analyzed using a LC-MS/MS with a lower limit of quantification (LLOQ) of 1 ng/mL. […]
In addition to the above PK parameters, bioavailability (% F) was calculated.

[3] = system: cigarette smoke-induced COPD; experiment: Subchronic (11 day) cigarette smoke exposure COPD model; type: in vivo, mouse; settings: oral 10 mg/kg/day for 11 days
Experimental: Infiltration of inflammatory cells into the bronchoalveolar lavage fluid (BALF) and BALF levels of chemokines involved in inflammation and tissue turnover/repair were measured to assess the influences of GSNOR inhibitors on some of the early events associated with the initiation and progression of COPD. […] In animal models, changes in lung pathology are only evident after extended (several months) duration of exposure to cigarette smoke, thus making chronic models prohibitive as effective screening tools. […] The key roles of inflammation in the initiation and progression of COPD, make these short duration models relevant for initial tests of efficacy of novel therapeutics. Subchronic (11 Day) Smoke Exposure Model: Female C57B1/6 mice (N=10 per group) were exposed to cigarette smoke generated from Marlboro 100 cigarettes without filters. Exposure times were 25 min. on study day 1, 35 min. on study day 2, and 45 min. on study days 3 to 11. GSNOR inhibitors were administered one hour prior to smoke exposure on each day. GSNOR inhibitors were dosed orally at 1 to 10 mg/kg/day for 11 days. The effects of GSNOR inhibitors were assessed by quantitating the number of total cells, and leukocytes differentials in the BALF via light microscopy at 24 h after the last exposure. The effect of GSNOR inhibitors were compared to vehicle treated controls and expressed as percent inhibition of the cigarette smoke induced increases in BALF cell numbers. Roflumilast was used as the positive control for the study and was dosed at 5 mg/kg/day. A group of naïve mice (N=10) was exposed to air and dosed with vehicle as a negative control for the study.

[4] = acute model, oral 1 mg/kg/day for 10 consecutive days, prophylactic dosing regimen

O=C(O)c1ccc(-c2ccc3cc(O)ccc3c2)c(Cl)c1 [Example 1, 3-chloro-4-(6-hydroxynaphthalen-2-yl)benzoic acid]
colon injury (in words) ([1]; acute DSS-induced IBD): attenuated colon injury | decrease of percent of mice presenting with severe colon injury scores via endoscopy, of vehicle control [1, 4]: 17% | decrease of percent of mice presenting with severe colon injury scores via histopathology, of vehicle control [1, 4]: 21% | decrease of percent of mice presenting with severe endoscopy scores, of vehicle control ([1]; acute model, oral 10 mg/kg/day for 10 days, p<0.05): 72% | bioavailability [2]: > 40% | inhibition of smoke-induced increase in lymphocytes in BAL [3]: 41% | inhibition of smoke-induced increase in macrophages in BAL ([3]; p<0.05): 40% | inhibition of smoke-induced increase in neutrophils in BAL ([3]; p<0.05): 49% | inhibition of smoke-induced increase in total cells in BAL ([3]; p<0.05): 40%
